From article PMC7352507, “The Genome Analysis of Methylobacterium populi YC-XJ1 with Diverse Xenobiotics Biodegrading Capacity and Degradation Characteristics of Related Hydrolase” (International Journal of Molecular Sciences, 2020)

Assays:
DEPH1 = system: T1, DEPH1; assay: residual substrate (HPLC or GC), Lineweaver-Burk; assay type: biochemical, Methylorubrum populi; settings: 10 mM PBS pH 7.0, 25 °C; 500 µg enzyme; DEP 0.2-2.4 mM
T1 construct: full length, 280 aa, 29,714 Da, no signal peptide; pET-32a(+) BamHI/HindIII, Trx/His/S tags kept (about 48 kDa on SDS-PAGE); E. coli

QPEH2 = system: T2, QPEH2; assay: HPLC of residual substrate, Lineweaver-Burk; assay type: biochemical, Methylorubrum populi; settings: 10 mM PBS pH 7.0, 25 °C; 120 µg enzyme; QPE 0.2-2.4 mM
T2 construct: full length, 367 aa, 39,840 Da, no signal peptide; pET-32a(+) BamHI/HindIII, fused tags (His/S stated; about 45 kDa on SDS-PAGE) kept; E. coli

Row | Km (QPEH2) [µM] | SMILES | Km (DEPH1) [µM]
1 |  | CCOC(=O)c1ccccc1C(=O)OCC [diethyl phthalate] | 1040 ± 270
2 | 83.9 ± 30.3 | CCOC(=O)[C@@H](C)Oc1ccc(Oc2cnc3cc(Cl)ccc3n2)cc1 [quizalofop-p-ethyl] | 
